Values of other authors, collected in article PMC3688238, “The effect of different dosing regimens of motesanib on the gallbladder: a randomized phase 1b study in patients with advanced solid tumors” (BMC Cancer, 2013).
Read-outs that look alike come from different tables or passages of the source.

System: gallbladder
Settings: cited from earlier work

COc1cc2c(Oc3ccc4[nH]c(C)cc4c3F)ncnc2cc1OCCCN1CCCC1 [Cediranib]
Adverse events reported (phase 1 study, ref Laurie et al. [21]): Acute cholecystitis
Adverse events reported (phase 2 study, ref Batchelor et al. [22]): Gallbladder obstruction, abdominal pain

Cc1ccc(NC(=O)c2ccc(CN3CCN(C)CC3)cc2)cc1Nc1nccc(-c2cccnc2)n1 [Imatinib]
Adverse events reported (case report, ref Breccia et al. [37]): Gallstones, gallbladder wall thickening, abdominal pain
Adverse events reported (phase 1 study, ref Grant et al. [24]): Cholecystitis
Adverse events reported (single-arm study, ref Yeh et al. [23]): Gallstones

CNC(=O)c1cc(Oc2ccc(NC(=O)Nc3ccc(Cl)c(C(F)(F)F)c3)cc2)ccn1 [Sorafenib]
Adverse events reported (case report, ref Sanda et al. [20]): Right upper abdominal pain, gallbladder edema, acute acalculous cholecystitis
Adverse events reported (ref Nexavar European public assessment report [26]): Cholecystitis, cholangitis
Adverse events reported (ref Nexavar US prescribing information [25]): Cholecystitis, cholangitis

CCN(CC)CCNC(=O)c1c(C)[nH]c(/C=C2\C(=O)Nc3ccc(F)cc32)c1C [Sunitinib]
Adverse events reported (case report, ref De Lima Lopes, Jr., et al. [18]): Acute emphysematous cholecystitis, right upper abdominal pain, gallbladder distension
Adverse events reported (case report, ref Gomez-Abuin et al. [19]): Acute acalculous cholecystitis, right upper abdominal pain, gallbladder wall thickening
Adverse events reported (single-arm study, ref Motzer et al. [17]): Acute cholecystitis
